Test results taken from US10370381B2, “Inhibitors of bruton'S tyrosine kinase” (GILEAD SCIENCES, INC., priority 2017, dated 2019).
Counter-ions that a name gives are not always drawn.

Assay: Dynamic Vapor Sorption (DVS), hygroscopicity of solids
Type: physicochemical
Conditions: from about 10% to about 90% RH at about 25° C.
Experimental: Dynamic Vapor Sorption (DVS):
DVS data, which was used to determine the hygroscopicity of solids, were collected on a TA Instruments Q5000SA system. The temperature-controlled chamber was set at 25° C. and dry nitrogen was introduced at a flow rate of 10 mL/min. Approximately 1 to 5 mg sample was placed in a semispherical metal-coated quartz crucible or a disposable aluminum pan. A stepwise isotherm experiment at 25° C. was conducted by controlling the relative humidity (RH) in the chamber from 10% to 90%, then down to 10%, at 10% increments to accomplish a full sorption/desorption cycle.

| dynamic vapor sorption isotherm water uptake | SMILES |
| --- | --- |
| about 0.5% | CC#CC(=O)N1CC[C@@H](n2c(=O)n(-c3ccc(Oc4ccccc4)cc3)c3c(N)ncnc32)C1 [Compound (I) oxalate, 6-amino-9-[(3R)-1-(2-butynoyl)-3-pyrrolidinyl]-7-(4-phenoxyphenyl)-7,9-dihydro-8H-purin-8-one] |
| about 1.2% | CC#CC(=O)N1CC[C@@H](n2c(=O)n(-c3ccc(Oc4ccccc4)cc3)c3c(N)ncnc32)C1 [Compound (I) hemisulfate, 6-amino-9-[(3R)-1-(2-butynoyl)-3-pyrrolidinyl]-7-(4-phenoxyphenyl)-7,9-dihydro-8H-purin-8-one] |
| about 22% | CC#CC(=O)N1CC[C@@H](n2c(=O)n(-c3ccc(Oc4ccccc4)cc3)c3c(N)ncnc32)C1 [Compound (I) edisylate, 6-amino-9-[(3R)-1-(2-butynoyl)-3-pyrrolidinyl]-7-(4-phenoxyphenyl)-7,9-dihydro-8H-purin-8-one] |
| about 0.2% | CC#CC(=O)N1CC[C@@H](n2c(=O)n(-c3ccc(Oc4ccccc4)cc3)c3c(N)ncnc32)C1 [Compound (I) succinate, 6-amino-9-[(3R)-1-(2-butynoyl)-3-pyrrolidinyl]-7-(4-phenoxyphenyl)-7,9-dihydro-8H-purin-8-one] |
| about 0.1% | CC#CC(=O)N1CC[C@@H](n2c(=O)n(-c3ccc(Oc4ccccc4)cc3)c3c(N)ncnc32)C1 [Compound (I) fumarate, 6-amino-9-[(3R)-1-(2-butynoyl)-3-pyrrolidinyl]-7-(4-phenoxyphenyl)-7,9-dihydro-8H-purin-8-one] |
| about 3% | CC#CC(=O)N1CC[C@@H](n2c(=O)n(-c3ccc(Oc4ccccc4)cc3)c3c(N)ncnc32)C1 [Compound (I) hemiedisylate, 6-amino-9-[(3R)-1-(2-butynoyl)-3-pyrrolidinyl]-7-(4-phenoxyphenyl)-7,9-dihydro-8H-purin-8-one] |
| about 6.5% | CC#CC(=O)N1CC[C@@H](n2c(=O)n(-c3ccc(Oc4ccccc4)cc3)c3c(N)ncnc32)C1 [Compound (I) heminapadisylate, 6-amino-9-[(3R)-1-(2-butynoyl)-3-pyrrolidinyl]-7-(4-phenoxyphenyl)-7,9-dihydro-8H-purin-8-one] |
